Results as given in publication PMC9688344, “[^225Ac]Ac-SibuDAB for Targeted Alpha Therapy of Prostate Cancer: Preclinical Evaluation and Comparison with [^225Ac]Ac-PSMA-617” (Cancers, 2022).
Where “and” joins values, the source holds several entries; their conditions need not be identical. Equal values may be shown once. Entries after “also recorded” stand apart in the source; their conditions may differ.

Assays:
[1] = test system: PSMA-negative PC-3 flu cells; test: Cell uptake in PSMA-negative cells; format: cell-based
[2] = test system: PSMA-positive PC-3 PIP tumor xenografts; test: Therapy study in PC-3 PIP tumor-bearing mice; format: in vivo, BALB/c nude mice
Description: Five days after subcutaneous inoculation of four groups of mice with either PC-3 PIP or PC-3 flu tumor cells on the right shoulder (4 × 10^6 cells in 100 μL HBSS), the mice were intravenously injected with either vehicle only (saline with 0.05% BSA, n = 6 and n = 4, respectively) or with 30 kBq [^225Ac]Ac-SibuDAB (1 nmol per mouse; n = 4 per group) diluted in vehicle (Table 1).
After tumor cell inoculation, mice bearing PC-3 PIP tumor xenografts were intravenously injected with vehicle only (n = 6) or with [^225Ac]Ac-SibuDAB or [^225Ac]Ac-PSMA-617, respectively, applied at 5 kBq or 10 kBq (1 nmol per mouse; n = 6 per group; Table 1). The control group consisted of mice from several studies (n = 12 mice) and the data from this group were published previously.
After administration of the radioligands, the mice were monitored over 8 weeks using the same measures as previously published by Umbricht et al.. The relative body mass was defined as [BMx/BM0], where BMx is the body mass in grams at a given Day x and BM0 is the body mass in grams at Day 0. The tumor dimension was determined by measuring the longest tumor axis (L) and its perpendicular axis (W) with a digital caliper. The tumor volume (V) was calculated according to the equation [V = 0.5 × (LW^2)]. The relative tumor volume was defined as [TVx/TV0], where TVx is the tumor volume in mm^3 at a given Day x, and TV0 is the tumor volume in mm^3 at Day 0. Endpoint criteria that required euthanasia were defined as (i) body mass loss of >15%, (ii) a tumor volume of >800 mm^3, (iii) a combination of body mass loss of >10% and a tumor volume of >700 mm^3 or, (iv) signs of unease and pain or a combination thereof using a scoring system as previously reported. The median survival of mice of each group was assessed with Kaplan–Meier curves. Potential early side effects for mice that survived until study end were determined based on blood chemistry and organ-to-brain mass ratios on Day 56 by comparison to values obtained from an additional group of therapy-naïve mice (n = 4) without tumors but of the same age (Supplementary Material: Section S9).
Table S10. Biodistribution data and tumor-to-background ratios obtained in PC3-PIP/flu tumor-bearing mice 48 h after injection of [225Ac]Ac-SibuDAB, [177Lu]Lu-SibuDAB, [225Ac]Ac-PSMA-617 or [177Lu]Lu-PSMA-617. Decay-corrected data of accumulated activity are shown as [% IA/g]-values, representing the average ± SD.
Biodistribution data at 48 h p.i.
1 Data of [177Lu]Lu-PSMA-617 were previously published by Benešová et al., Mol Pharm 2018 [2]; Copyright 2018, American Chemical Society.
Purpose: In order to determine the therapeutic efficacy of [225Ac]Ac-SibuDAB in com-parison to [225Ac]Ac-PSMA-617 as well as the 177Lu-labeled counterparts, therapy studies were conducted in PC-3 PIP xenograft-bearing BALB/c nude mice.
Methods: The methods of the therapy study to assess the therapeutic efficacy of [225Ac]Ac-SibuDAB are reported in the main manuscript. An additional group of mice was treated with 10 MBq (1 nmol) [177Lu]Lu-SibuDAB under the same experimental condi-tions. Data previously acquired by our group for mice treated with 5 MBq [177Lu]Lu-SibuDAB were published by Borgna & Deberle et al. and data of mice treated with 5 MBq or 10 MBq [177Lu]Lu-PSMA-617 were previously published by Tschan et al. and Umbricht et al., respectively.
Results: The assessment of the PSMA-specific therapeutic effect of [225Ac]Ac-SibuDAB as well as the comparison to [225Ac]Ac-PSMA-617 are described in the main ar-ticle. The body mass of effectively treated mice, in which the tumor disappeared entirely […]
tumor-bearing mice that were treated with only vehicle as well as for some mice that were treated with 5 kBq or 10 kBq [225Ac]Ac-PSMA-617 and experienced a relapse in tumor

Structure (SMILES) | Cell uptake [1] | Day of first endpoint ([2]; 5 kBq) | Day of last endpoint ([2]; 5 kBq) | Median Survival ([2]; 5 kBq) | Number of Mice Alive on Day 56 ([2]; 5 kBq) | Tumor response ([2]; 5 kBq) | Day of first endpoint ([2]; 10 kBq) | Day of last endpoint ([2]; 10 kBq) | Median Survival ([2]; 10 kBq) | Number of Mice Alive on Day 56 ([2]; 10 kBq) | Tumor response ([2]; 5 kBq, listed as [225Ac]Ac-SibuDAB) | Tumor response ([2]; 10 kBq) | Tumor response ([2]; 10 kBq, listed as [225Ac]Ac-SibuDAB) | Day of first endpoint ([2]; 30 kBq) | Day of last endpoint ([2]; 30 kBq) | Median Survival ([2]; 30 kBq) | Number of Mice Alive on Day 56 ([2]; 30 kBq) | Tumor response ([2]; 30 kBq) | Tumor response ([2]; 30 kBq, listed as [225Ac]Ac-SibuDAB)
O=C([O-])CN1CCN(CC(=O)[O-])CCN(CC(=O)NCC2CCC(C(=O)NC(Cc3ccc4ccccc4c3)C(=O)NCCCCC(NC(=O)NC(CCC(=O)O)C(=O)O)C(=O)O)CC2)CCN(CC(=O)[O-])CC1.[225Ac+3] (centres unmarked) [[^225Ac]Ac-PSMA-617] | < 1% | 42 | 56 | 46 days | one out of six and 1/6 | tumor regrowth was observed | 38 | 56 | >56 ^3 days | four out of six and 4/6 |  |  |  |  |  |  |  |  | 
CC(C)Cc1ccc(C(C)C(=O)NC(CCN)C(=O)NCCCCC(NC(=O)CN2CCN(CC(=O)[O-])CCN(CC(=O)[O-])CCN(CC(=O)[O-])CC2)C(=O)NCC2CCC(C(=O)NC(Cc3ccc4ccccc4c3)C(=O)NCCCCC(NC(=O)NC(CCC(=O)O)C(=O)O)C(=O)O)CC2)cc1.[225Ac+3] (centres unmarked) [[^225Ac]Ac-SibuDAB] | < 1% | 56 ^2 | 56 ^2 | >56 ^3 days | 6/6 | sufficient to eradicate the tumors; also recorded: effectively eradicated tumors of all mice; also recorded: no tumors were visible at Day 56 | 56 ^2 | 56 ^2 | >56 ^3 days | 6/6 | no tumors were visible 56 days after; also recorded: no tumor visible on Day 56 | effectively eradicated tumors of all mice | no tumor visible on Day 56 | 56 ^2 | 56 ^2 | >56 ^3 days | 4/4 | eradicated PSMA-positive PC-3 PIP tumors entirely | no tumor visible on Day 56
